The supplement of paper PMC10307832

Experiments:
Assay in all cases: relative viability (nuclei count vs DMSO), 5 days (fraction); higher = more cells survive
Etoposide + Phenformin = compound: COc1cc([C@@H]2c3cc4c(cc3[C@@H](O[C@@H]3O[C@@H]5CO[C@@H](C)O[C@H]5[C@H](O)[C@H]3O)[C@H]3COC(=O)[C@H]23)OCO4)cc(OC)c1O [Etoposide] + N=C(N)NC(=N)NCCc1ccccc1 [Phenformin] (partner 250 µM)
How it was run: (§1)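 After 5 days of treatment, lung cancer cells in 1536-well plates were fixed and stained in a single step (final 0.05% Triton X-100, 1% formaldehyde, 1 ug/ml Hoechst) and their nuclei counted on 4× images. Treatment had been applied by pin tool the day after seeding as one drug alone or as a fixed anchor-drug dose with five library-drug doses (not always all listed) in √10 steps. Relative viability is the nuclei count of treated wells divided by that of vehicle wells, and values are medians of duplicate plates.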

Bleomycin + AZD7762 = compound: CC1=C(N=C(N=C1N)[C@H](CC(=O)N)NC[C@@H](C(=O)N)N)C(=O)N[C@@H]([C@H](C2=CN=CN2)OC3C(C(C(C(O3)CO)O)O)OC4C(C(C(C(O4)CO)O)OC(=O)N)O)C(=O)N[C@H](C)[C@H]([C@H](C)C(=O)N[C@@H]([C@@H](C)O)C(=O)NCCC5=NC(=CS5)C6=NC(=CS6)C(=O)NCCC[S+](C)C)O [Bleomycin] + NC(=O)Nc1cc(-c2cccc(F)c2)sc1C(=O)N[C@H]1CCCNC1 [AZD7762] (partner 0.2 µM); conditions: main component drawn
How it was run: as §1

Bleomycin + Trametinib = compound: CC1=C(N=C(N=C1N)[C@H](CC(=O)N)NC[C@@H](C(=O)N)N)C(=O)N[C@@H]([C@H](C2=CN=CN2)OC3C(C(C(C(O3)CO)O)O)OC4C(C(C(C(O4)CO)O)OC(=O)N)O)C(=O)N[C@H](C)[C@H]([C@H](C)C(=O)N[C@@H]([C@@H](C)O)C(=O)NCCC5=NC(=CS5)C6=NC(=CS6)C(=O)NCCC[S+](C)C)O [Bleomycin] + CC(=O)Nc1cccc(-n2c(=O)n(C3CC3)c(=O)c3c(Nc4ccc(I)cc4F)n(C)c(=O)c(C)c32)c1 [Trametinib] (partner 0.02 µM); conditions: main component drawn
How it was run: as §1

Bleomycin + Pictilisib = compound: CC1=C(N=C(N=C1N)[C@H](CC(=O)N)NC[C@@H](C(=O)N)N)C(=O)N[C@@H]([C@H](C2=CN=CN2)OC3C(C(C(C(O3)CO)O)O)OC4C(C(C(C(O4)CO)O)OC(=O)N)O)C(=O)N[C@H](C)[C@H]([C@H](C)C(=O)N[C@@H]([C@@H](C)O)C(=O)NCCC5=NC(=CS5)C6=NC(=CS6)C(=O)NCCC[S+](C)C)O [Bleomycin] + CS(=O)(=O)N1CCN(Cc2cc3nc(-c4cccc5[nH]ncc45)nc(N4CCOCC4)c3s2)CC1 [Pictilisib] (partner 1 µM); conditions: main component drawn
How it was run: as §1

| Cell Line | relative viability (Etoposide + Phenformin; first compound 0.01 µM) | relative viability (Etoposide + Phenformin; first compound 0.03162 µM) | relative viability (Etoposide + Phenformin; first compound 0.1 µM) | relative viability (Etoposide + Phenformin; first compound 0.3162 µM) | relative viability (Etoposide + Phenformin; first compound 1 µM) | relative viability (Bleomycin + AZD7762; first compound 0.01 µM) | relative viability (Bleomycin + AZD7762; first compound 0.03162 µM) | relative viability (Bleomycin + AZD7762; first compound 0.1 µM) | relative viability (Bleomycin + AZD7762; first compound 0.3162 µM) | relative viability (Bleomycin + AZD7762; first compound 1 µM) | relative viability (Bleomycin + Trametinib; first compound 0.01 µM) | relative viability (Bleomycin + Trametinib; first compound 0.03162 µM) | relative viability (Bleomycin + Trametinib; first compound 0.1 µM) | relative viability (Bleomycin + Trametinib; first compound 0.3162 µM) | relative viability (Bleomycin + Trametinib; first compound 1 µM) | relative viability (Bleomycin + Pictilisib; first compound 0.01 µM) | relative viability (Bleomycin + Pictilisib; first compound 0.03162 µM) | relative viability (Bleomycin + Pictilisib; first compound 0.1 µM) | relative viability (Bleomycin + Pictilisib; first compound 0.3162 µM) | relative viability (Bleomycin + Pictilisib; first compound 1 µM) |
| --- | --- | --- | --- | --- | --- | --- | --- | --- | --- | --- | --- | --- | --- | --- | --- | --- | --- | --- | --- | --- |
| NCI-H1975 | 0.398 | 0.486 | 0.382 | 0.293 | 0.17 | 0.609 | 0.649 | 0.555 | 0.259 | 0.291 | 0.326 | 0.284 | 0.327 | 0.226 | 0.152 | 0.288 | 0.256 | 0.258 | 0.188 | 0.134 |
| CAL-12T | 0.594 | 0.612 | 0.586 | 0.409 | 0.221 | 0.497 | 0.603 | 0.436 | 0.289 | 0.24 | 0.339 | 0.326 | 0.294 | 0.174 | 0.18 |  | 0.588 | 0.394 | 0.207 | 0.236 |
| NCI-H1623 | 0.624 | 0.615 | 0.388 | 0.485 | 0.281 |  |  |  |  |  |  |  |  |  |  |  |  |  |  |  |
| HCC-44 | 0.215 | 0.156 | 0.134 | 0.198 | 0.112 | 0.955 | 1 | 0.965 | 0.646 | 0.573 | 0.914 | 0.924 | 0.827 | 0.369 | 0.388 | 0.385 | 0.477 | 0.271 | 0.211 | 0.246 |
| EKVX | 0.262 | 0.271 | 0.196 | 0.254 | 0.178 | 0.607 | 0.598 | 0.544 | 0.538 | 0.237 | 0.396 | 0.298 | 0.301 | 0.196 | 0.158 | 0.422 | 0.39 | 0.376 | 0.212 | 0.189 |
| NCI-H1651 | 0.293 | 0.351 | 0.286 | 0.205 | 0.149 | 0.484 | 0.46 | 0.323 | 0.266 | 0.219 | 0.818 | 0.712 | 0.714 | 0.368 | 0.223 | 0.576 | 0.517 | 0.44 | 0.249 | 0.153 |
| NCI-H1944 | 0.189 | 0.275 | 0.213 | 0.148 | 0.123 | 0.246 | 0.384 | 0.317 | 0.211 | 0.172 | 0.319 | 0.255 | 0.276 | 0.234 | 0.165 | 0.284 | 0.282 | 0.271 | 0.204 | 0.184 |
| NCI-H1703 |  |  |  |  |  | 0.131 | 0.139 | 0.128 | 0.122 | 0.114 |  |  |  |  |  | 0.226 | 0.236 | 0.26 | 0.219 | 0.176 |
| Calu-6 |  |  |  |  |  |  |  |  |  |  |  |  |  |  |  | 0.575 | 0.537 | 0.385 | 0.179 | 0.177 |
| EBC-1 |  |  |  |  |  |  |  |  |  |  |  |  |  |  |  | 0.359 | 0.376 | 0.346 | 0.272 | 0.283 |
